Results from paper PMC12207590, “Substrate Specificity of the Organic Cation Transporters MATE1 and MATE2K and Functional Overlap with OCT1 and OCT2” (Journal of Medicinal Chemistry, 2025).
Like-named read-outs stand apart in the source and are kept apart here.

How the values were obtained:
renal MATE1 = details: 800 mg cimetidine; cited from earlier work
MATE2K [1] = target: T1, MATE2K (Homo sapiens, UniProt Q86VL8); assay: Uptake ratio in MATE2K-overexpressing HEK293 cells vs empty vector (2.5 μM, 1 min, HPLC-MS/MS); type: cell-based
[2] = human; cited from earlier work
MATE1 [3] = target: T2, MATE1 (Homo sapiens, UniProt Q96FL8); assay: Uptake ratio in MATE1-overexpressing HEK293 cells vs empty vector (2.5 μM, 1 min, HPLC-MS/MS); type: cell-based
T2 sequence (Q96FL8 1-570): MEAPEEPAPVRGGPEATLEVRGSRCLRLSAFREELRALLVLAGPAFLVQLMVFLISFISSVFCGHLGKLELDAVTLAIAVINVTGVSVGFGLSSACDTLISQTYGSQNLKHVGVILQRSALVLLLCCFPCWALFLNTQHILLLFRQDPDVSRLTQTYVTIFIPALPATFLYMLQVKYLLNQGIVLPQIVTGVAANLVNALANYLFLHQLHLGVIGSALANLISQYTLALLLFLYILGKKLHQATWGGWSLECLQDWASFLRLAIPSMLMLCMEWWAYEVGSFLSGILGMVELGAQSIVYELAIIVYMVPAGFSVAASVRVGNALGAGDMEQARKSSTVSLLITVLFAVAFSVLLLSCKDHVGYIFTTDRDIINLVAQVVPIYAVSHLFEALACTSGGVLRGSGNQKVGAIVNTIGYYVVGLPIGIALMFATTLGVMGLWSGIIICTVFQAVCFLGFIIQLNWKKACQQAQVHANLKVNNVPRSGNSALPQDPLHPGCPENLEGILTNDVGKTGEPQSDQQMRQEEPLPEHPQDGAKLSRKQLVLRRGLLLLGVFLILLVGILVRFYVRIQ

MATE1 [4] = target: T2, MATE1; assay: in vitro; details: other cell line, pH 7.4
MATE1 [5] = target: T2, MATE1; assay: Concentration-dependent uptake (Michaelis-Menten) via MATE1 in HEK293 cells
MATE2K [6] = target: T1, MATE2K; assay: Concentration-dependent uptake (Michaelis-Menten) via MATE2K in HEK293 cells; details: HEK293, 1 min, net uptake
MATE1 [7] = target: T2, MATE1
MATE2K [8] = target: T1, MATE2K; assay: in vitro; details: other cell line, pH 7.4
[9] = fold uptake over empty vector, 2.5 μM, 1 min

T1 sequence (Q86VL8 1-566 isoform Q86VL8-3): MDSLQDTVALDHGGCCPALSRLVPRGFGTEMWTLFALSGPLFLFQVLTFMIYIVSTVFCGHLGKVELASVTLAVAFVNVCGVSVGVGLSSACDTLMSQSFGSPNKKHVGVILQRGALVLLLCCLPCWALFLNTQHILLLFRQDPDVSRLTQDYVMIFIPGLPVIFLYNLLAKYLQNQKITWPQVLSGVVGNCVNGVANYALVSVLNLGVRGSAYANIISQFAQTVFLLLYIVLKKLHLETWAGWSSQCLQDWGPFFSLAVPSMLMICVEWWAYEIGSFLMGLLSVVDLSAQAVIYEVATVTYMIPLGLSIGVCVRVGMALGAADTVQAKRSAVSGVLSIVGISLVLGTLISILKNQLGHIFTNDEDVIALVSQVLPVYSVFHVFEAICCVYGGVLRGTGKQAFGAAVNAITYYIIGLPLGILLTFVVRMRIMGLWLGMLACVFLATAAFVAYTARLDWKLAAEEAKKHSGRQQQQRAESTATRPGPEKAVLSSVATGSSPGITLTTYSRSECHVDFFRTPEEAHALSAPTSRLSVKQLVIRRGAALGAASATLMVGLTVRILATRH

MATE2K ratio in this study (MATE2K [1]; Table S1, 2.5 μM, 1 min)	MATE2K ratio (MATE2K [1]; [9])	MATE2 (uptake ratio) (MATE2K [1]; mean ratio of uptake in MATE2K-overexpressing HEK293 cells vs empty vector, 2.5 μM, 1 min)	MATE1 ratio in this study (MATE1 [3]; Table S1, 2.5 μM, 1 min)	MATE1 ratio (MATE1 [3]; [9])	MATE1 ratio (MATE1 [3]; fold uptake over empty vector, 2.5 μM, 1 min, listed as cimetidine)	MATE1 (uptake ratio) (MATE1 [3]; mean ratio of uptake in MATE1-overexpressing HEK293 cells vs empty vector, 2.5 μM, 1 min)	Compound	inhibition of metformin elimination (renal MATE1)	eliminated unchanged via the kidneys [2]	MATE2K ratio (MATE2K [1])	microsomal CLint (MATE1 [4]) [µL/min/mg]	MATE1 Vmax (MATE1 [5])	MATE2K Vmax (MATE2K [6])	Km (MATE2K [6]; read-out: MATE2K KM) [nM]	MATE1 ratio (MATE1 [3])	Km (MATE1 [7]) [µM]	MATE1 Clint (MATE1 [7]; human, pH 7.4)	microsomal CLint (MATE2K [8]) [µL/min/mg]
3.60	3.60	3.6	11.52	11.52	above 2	11.52	CN/C(=N\CCSCc1nc[nH]c1C)NC#N [Cimetidine]	approximately 43%	more than 70%	–	–	–	–	–	–	–	–	–
–	–	–	–	–	–	–	c1c2c(cc3c1OCO3)-c1cc3ccc4c(c3c[n+]1CC2)OCO4 [Coptisine]	–	–	6.48	145	2901 pmol × mg protein^–1 × min^–1	246 pmol × mg protein^–1 × min^–1	1880	9.90	20	145 μL × mg protein^–1 × min^–1	131
